system: human embryonic stem cell derived neural stem cells (NSCs); assay: Neurogenesis assay: neural stem cell proliferation assay; details: 96 h, compound concentration at which 150% activity of control (100%) is reached, increase in cells based on ATP levels (CellTiterGlo), 4 days incubation, dose response 8 μM to 8 nM
Method: Neural Stem Cell Proliferation Assay
Neurogenic properties of small molecules are determined based on the proliferation of human embryonic stem cell derived neural stem cells (NSCs) which were derived via a dual smad inhibition as previously described (Chambers, S. M., et al., Highly efficient neural conversion of human ES and iPS cells by dual inhibition of SMAD signaling, Nature biotechnology, 2009 27(3): p. 275-80.).
Compounds response is measured by the increase in cells based on ATP levels (Promega:CellTiterGlo®) after an incubation period of 4 days. NSCs are thawed and expanded over 3 passages. On the 14th day, NSCs are seeded in Polyornithin/Laminin coated 384 well plates at a cell density of 21,000 cells/cm^2 in a media volume of 38 μl.
4 hours after cell seeding, compound solutions are added at a volume of 2 μl. Stock solutions of the compounds (water, 5% DMSO) are diluted to obtain a dose response (11 points, dilution factor is 2), ranging from 8 μM to 8 nM. Controls are run to consistently determine the neurogenic properties of the cells:
Negative (neutral) control is cell culture Media (final DMSO concentration: 0.25%).
1. cell culture Media+100 ng/ml FGF2 (final DMSO concentration: 0.1%)
2. cell culture Media+20 ng/ml EGF (final DMSO concentration: 0.1%)
3. cell culture Media+100 ng/ml Wnt3a (final DMSO concentration: 0.1%)
After 4 days incubation at 37° C., 5% CO2, the amount of ATP per well is quantified. The ATP concentration is proportional to the cell number. ATP is quantified by using the Promega CellTiterGlo® kit. The CellTiterGlo® reagents contain a cell lysis buffer, a thermo stable luciferase (UltraGlo™ recombinant luciferase), magnesium and luciferin. Luciferin reacts with ATP producing oxyluciferin, AMP and light. The luminescence signal is proportional to the ATP content.
The value of negative (neutral) control is determined for each assay plate by taking the average of 16 negative control wells. The neurogenic compound response is calculated for each compound as (compound/Negative Control)*100. The values of EC150 from the dose response curve are determined for each test compound. The EC150 is the compound concentration at which 150% activity of control (100%) is reached.

SMILES	EC (150% of control) [µM]
CCC(c1ccccc1)N1CCN(c2ccc(-c3cn[nH]c3)c(OC)c2)C1=O (stereo not shown) [Example 51, 1-[3-Methoxy-4-(1H-pyrazol-4-yl)phenyl]-3-(1-phenylpropyl)imidazolidin-2-one]	0.594
COc1cccc(C2CCN(c3ccc(-c4cn[nH]c4)c(OC)c3)C2=O)c1 (stereo not shown) [Example 24, 1-(3-Methoxy-4-(1H-pyrazol-4-yl)phenyl)-3-(3-methoxyphenyl)pyrrolidin-2-one]	0.0299
COc1cccc(CN2CCN(c3ccc(-c4cn[nH]c4)cc3)C2=O)c1 [Example 27, 1-[(3-Methoxyphenyl)methyl]-3-[4-(1H-pyrazol-4-yl)phenyl]imidazolidin-2-one]	0.294
COc1cccc(CN2CCN(c3ccc(-c4cn[nH]c4)cc3Cl)C2=O)c1 [Example 46, 1-[2-Chloro-4-(1H-pyrazol-4-yl)phenyl]-3-[(3-methoxyphenyl)methyl]imidazolidin-2-one]	1.83
COc1cc(N2CCC(c3cccc(F)c3)C2=O)ccc1-c1cnco1 (stereo not shown) [Example 61, 3-(3-Fluorophenyl)-1-[3-methoxy-4-(1,3-oxazol-5-yl)phenyl]pyrrolidin-2-one]	0.262
COc1cc(N2CCC(Cc3ccccc3)C2=O)ccc1-c1cn[nH]c1 (stereo not shown) [Example 23, 3-Benzyl-1-(3-methoxy-4-(1H-pyrazol-4-yl)phenyl)pyrrolidin-2-one]	0.612
COc1cc(N2CCN(Cc3ccncc3)C2=O)ccc1-c1cn[nH]c1 [Example 62, 1-[3-Methoxy-4-(1H-pyrazol-4-yl)phenyl]-3-(4-pyridylmethyl)imidazolidin-2-one]	0.042
O=C1C(c2cccc(Cl)c2)CCN1c1ccc(-c2cn[nH]c2)cc1 (stereo not shown) [Example 17, 3-(3-Chlorophenyl)-1-[4-(1H-pyrazol-4-yl)phenyl]pyrrolidin-2-one]	0.23
COc1cc(N2CCN(Cc3cccc(F)c3)C2=O)ccc1-c1cnco1 [Example 75, 1-[(3-Fluorophenyl)methyl]-3-[3-methoxy-4-(1,3-oxazol-5-yl)phenyl]imidazolidin-2-one]	0.597
COc1cc(N2CCN(CCc3ccccc3)C2=O)ccc1-c1cn[nH]c1 [Example 43, 1-[3-Methoxy-4-(1H-pyrazol-4-yl)phenyl]-3-(2-phenylethyl)imidazolidin-2-one]	0.309
COc1cccc(C2CCN(c3ccc(-c4ccncc4)c(OC)c3)C2=O)c1 (stereo not shown) [Example 70, 3-(3-Methoxyphenyl)-1-(3-methoxy-4-pyridin-4-ylphenyl)pyrrolidin-2-one]	0.0613
COc1cc(N2CCN(Cc3ccccn3)C2=O)ccc1-c1cn[nH]c1 [Example 63, 1-[3-Methoxy-4-(1H-pyrazol-4-yl)phenyl]-3-(2-pyridylmethyl)imidazolidin-2-one]	0.255
COc1cc(N2CCC(Cc3cccc(Cl)c3)C2=O)ccc1-c1cn[nH]c1 (stereo not shown) [Example 36, 3-[(3-Chlorophenyl)methyl]-1-[3-methoxy-4-(1H-pyrazol-4-yl)phenyl]pyrrolidin-2-one]	1.65
O=C1N(Cc2ccccc2)CCN1c1ccc(-c2ccncc2)cc1 [Example 2, 1-Benzyl-3-(4-(pyridin-4-yl)phenyl)imidazolidin-2-one]	1.04
COc1cc(N2CCN(Cc3cccc(C)c3)C2=O)ccc1-c1cn[nH]c1 [Example 35, 1-[3-Methoxy-4-(1H-pyrazol-4-yl)phenyl]-3-(m-tolylmethyl)imidazolidin-2-one]	2.65
COc1cc(N2CCN(Cc3ccccc3)C2=O)ccc1-c1cn[nH]c1 [Example 9, 1-Benzyl-3-[3-methoxy-4-(1H-pyrazol-4-yl)phenyl]imidazolidin-2-one]	0.161
O=C1C(c2ccc(F)cc2)CCN1c1ccc(-c2cn[nH]c2)cc1 (stereo not shown) [Example 16, 3-(4-Fluorophenyl)-1-[4-(1H-pyrazol-4-yl)phenyl]pyrrolidin-2-one]	0.0417
COc1cc(N2CCC(c3cccc(Cl)c3)C2=O)ccc1-c1cn[nH]c1 (stereo not shown) [Example 25, 3-(3-Chlorophenyl)-1-(3-methoxy-4-(1H-pyrazol-4-yl)phenyl)pyrrolidin-2-one]	0.0659
COc1cccc(C2CCN(c3ccc(-c4cnco4)cc3)C2=O)c1 (stereo not shown) [Example 52, 3-(3-Methoxyphenyl)-1-[4-(1,3-oxazol-5-yl)phenyl]pyrrolidin-2-one]	0.517

SMILES	EC (150% of control) [µM]
COc1cc(N2CCC(c3ccccc3)C2=O)ccc1-c1cnco1 (stereo not shown) [Example 8, 1-(3-Methoxy-4-oxazol-5-yl-phenyl)-3-phenyl-pyrrolidin-2-one]	0.471
COc1cc(N2CCC(Cc3ccccc3Cl)C2=O)ccc1-c1cn[nH]c1 (stereo not shown) [Example 37, 3-[(2-Chlorophenyl)methyl]-1-[3-methoxy-4-(1H-pyrazol-4-yl)phenyl]pyrrolidin-2-one]	1.13
COc1cc(N2CCN(Cc3ccccc3C)C2=O)ccc1-c1cn[nH]c1 [Example 34, 1-[3-Methoxy-4-(1H-pyrazol-4-yl)phenyl]-3-(o-tolylmethyl)imidazolidin-2-one]	0.2
COc1cc(N2CCN(Cc3ccccc3F)C2=O)ccc1-c1cnco1 [Example 74, 1-[(2-Fluorophenyl)methyl]-3-[3-methoxy-4-(1,3-oxazol-5-yl)phenyl]imidazolidin-2-one]	2.7
COc1cc(N2CCN(Cc3cccc(F)c3)C2=O)ccc1-c1cn[nH]c1 [Example 19, 1-[(3-Fluorophenyl)methyl]-3-[3-methoxy-4-(1H-pyrazol-4-yl)phenyl]imidazolidin-2-one]	0.047
CCOc1cccc(CN2CCN(c3ccc(-c4cn[nH]c4)c(OC)c3)C2=O)c1 [Example 22, 1-[(3-Ethoxyphenyl)methyl]-3-[3-methoxy-4-(1H-pyrazol-4-yl)phenyl]imidazolidin-2-one]	0.0739
COc1cccc(CN2CCN(c3ccc(-c4cn[nH]c4)cc3OC)C2=O)c1 [Example 39, 1-[(3-Methoxyphenyl)methyl]-3-[2-methoxy-4-(1H-pyrazol-4-yl)phenyl]imidazolidin-2-one]	0.393
COc1cccc(C2CCN(c3ccc(-c4cnco4)c(OC)c3)C2=O)c1 (stereo not shown) [Example 3, 1-(3-Methoxy-4-oxazol-5-yl-phenyl)-3-(3-methoxyphenyl)pyrrolidin-2-one]	0.0814
COc1ccccc1CN1CCN(c2ccc(-c3cnco3)c(OC)c2)C1=O [Example 67, 1-[3-Methoxy-4-(1,3-oxazol-5-yl)phenyl]-3-[(2-methoxyphenyl)methyl]imidazolidin-2-one]	0.702
COc1cc(N2CCN(Cc3ccccc3Cl)C2=O)ccc1-c1cnco1 [Example 69, 1-[(2-Chlorophenyl)methyl]-3-[3-methoxy-4-(1,3-oxazol-5-yl)phenyl]imidazolidin-2-one]	2.24
COc1cc(N2CCN(CC(C)c3ccccc3)C2=O)ccc1-c1cn[nH]c1 (stereo not shown) [Example 64, 1-[3-Methoxy-4-(1H-pyrazol-4-yl)phenyl]-3-(2-phenylpropyl)imidazolidin-2-one]	0.387
COc1cc(N2CCN(Cc3ccc(F)cc3)C2=O)ccc1-c1cn[nH]c1 [Example 47, 1-[(4-Fluorophenyl)methyl]-3-[3-methoxy-4-(1H-pyrazol-4-yl)phenyl]imidazolidin-2-one]	0.768
COc1cc(N2CCCN(Cc3ccccc3Cl)C2=O)ccc1-c1cn[nH]c1 [Example 6, 1-[(2-Chlorophenyl)methyl]-3-[3-methoxy-4-(1H-pyrazol-4-yl)phenyl]hexahydropyrimidin-2-one]	1.99
O=C1C(c2cccc(F)c2)CCN1c1ccc(-c2cnco2)cc1 (stereo not shown) [Example 60, 3-(3-Fluorophenyl)-1-[4-(1,3-oxazol-5-yl)phenyl]pyrrolidin-2-one]	0.605
COc1cc(N2CCN(CCc3ccc(Cl)cc3)C2=O)ccc1-c1cn[nH]c1 [Example 50, 1-[2-(4-Chlorophenyl)ethyl]-3-[3-methoxy-4-(1H-pyrazol-4-yl)phenyl]imidazolidin-2-one]	2.01
COc1cc(N2CCCN(Cc3ccccc3)C2=O)ccc1-c1cn[nH]c1 [Example 5, 1-Benzyl-3-[3-methoxy-4-(1H-pyrazol-4-yl)phenyl]hexahydropyrimidin-2-one]	1.33
COc1cccc(CC2CCN(c3ccc(-c4cn[nH]c4)c(OC)c3)C2=O)c1 (stereo not shown) [Example 40, 3-[(3-Methoxyphenyl)methyl]-1-[3-methoxy-4-(1H-pyrazol-4-yl)phenyl]pyrrolidin-2-one]	0.334
O=C1C(c2ccccc2)CCN1c1ccc(-c2cnco2)cc1 (stereo not shown) [Example 53, 1-[4-(1,3-Oxazol-5-yl)phenyl]-3-phenylpyrrolidin-2-one]	2.21

Source: US9714239B2, “N-phenyl-lactam derivatives capable of stimulating neurogenesis and their use in the treatment of neurological disorders” (Hoffmann-La Roche Inc., priority 2014, dated 2017)
